Measurements reported in ChEMBL document CHEMBL3885881, “DrugMatrix”.

Species on record: Rattus norvegicus
Assay: DrugMatrix - Regimen: Daily Repeat
Assay type: toxicity, organism-based, Sprague-Dawley
Set-up: regimen Daily Repeat, gender Male, age 6-8 weeks
Details: in vivo, po, 44 mg/kg, route oral GAVAGE, dose level Low, vehicle 100 % WATER; for ABSOLUTE BASOPHIL / ABSOLUTE EOSINOPHIL / ABSOLUTE LYMPHOCYTE / ABSOLUTE MONOCYTE / ABSOLUTE SEGMENTED NEUTROPHIL / BASOPHIL / EOSINOPHIL / ERYTHROCYTE COUNT / HEMATOCRIT / HEMOGLOBIN / LEUKOCYTE COUNT / LYMPHOCYTE / MEAN CORPUSCULAR HEMOGLOBIN / MEAN CORPUSCULAR HEMOGLOBIN CONCENTRATION / MEAN CORPUSCULAR VOLUME / MONOCYTE / NEUTROPHIL / NUCLEATED RED BLOOD CELLS / PLATELET COUNT: tissue Blood; for ALANINE AMINOTRANSFERASE / ALBUMIN / ALKALINE PHOSPHATASE / ASPARTATE AMINOTRANSFERASE / BLOOD UREA NITROGEN / CARBON DIOXIDE / CHLORIDE / CHOLESTEROL / CREATINE PHOSPHOKINASE / CREATININE / GLUCOSE / LACTATE DEHYDROGENASE / LIPASE / PHOSPHORUS / POTASSIUM / SODIUM / TOTAL BILIRUBIN / TOTAL PROTEIN / URIC ACID: tissue Plasma

SMILES: Cn1c(=O)c2c(ncn2CC2OCCO2)n(C)c1=O [DOXOFYLLINE]
- ABSOLUTE BASOPHIL (72 h, time 3 day): 0 CELLS/uL
- ABSOLUTE EOSINOPHIL (72 h, time 3 day): 159 CELLS/uL
- ABSOLUTE LYMPHOCYTE (72 h, time 3 day): 15168.33 CELLS/uL
- ABSOLUTE MONOCYTE (72 h, time 3 day): 106 CELLS/uL
- ABSOLUTE SEGMENTED NEUTROPHIL (72 h, time 3 day): 1466.67 CELLS/uL
- BASOPHIL (72 h, time 3 day): 0%
- EOSINOPHIL (72 h, time 3 day): 1%
- ERYTHROCYTE COUNT (72 h, time 3 day): 5.65 x10E6/uL
- HEMATOCRIT (72 h, time 3 day): 36.33%
- HEMOGLOBIN (72 h, time 3 day): 13.93 G/DL
- LEUKOCYTE COUNT (72 h, time 3 day): 16.9 x10E3/uL
- LYMPHOCYTE (72 h, time 3 day): 89.67%
- MEAN CORPUSCULAR HEMOGLOBIN (72 h, time 3 day): 24.67 pg
- MEAN CORPUSCULAR HEMOGLOBIN CONCENTRATION (72 h, time 3 day): 38.37 G/DL
- MEAN CORPUSCULAR VOLUME (72 h, time 3 day): 64.23 fL
- MONOCYTE (72 h, time 3 day): 0.67%
- NEUTROPHIL (72 h, time 3 day): 8.67%
- NUCLEATED RED BLOOD CELLS (72 h, time 3 day): 0 /100WBC
- PLATELET COUNT (72 h, time 3 day): 1263 x10E3/uL
- ALANINE AMINOTRANSFERASE (72 h, time 3 day): 51.33 u/L
- ALBUMIN (72 h, time 3 day): 4.3 G/DL
- ALKALINE PHOSPHATASE (72 h, time 3 day): 393.67 u/L
- ASPARTATE AMINOTRANSFERASE (72 h, time 3 day): 90.67 u/L
- BLOOD UREA NITROGEN (72 h, time 3 day): 15.67 mg/dL
- CARBON DIOXIDE (72 h, time 3 day): 27 mmol/L
- CHLORIDE (72 h, time 3 day): 100.33 MEQ/L
- CHOLESTEROL (72 h, time 3 day): 80.67 mg/dL
- CREATINE PHOSPHOKINASE (72 h, time 3 day): 250.67 u/L
- CREATININE (72 h, time 3 day): 0.19 mg/dL
- GLUCOSE (72 h, time 3 day): 159.33 mg/dL
- LACTATE DEHYDROGENASE (72 h, time 3 day): 324 u/L
- LIPASE (72 h, time 3 day): 9.67 u/L
- PHOSPHORUS (72 h, time 3 day): 14.4 mg/dL
- POTASSIUM (72 h, time 3 day): 7.21 MEQ/L
- SODIUM (72 h, time 3 day): 145.63 MEQ/L
- TOTAL BILIRUBIN (72 h, time 3 day): 0.17 mg/dL
- TOTAL PROTEIN (72 h, time 3 day): 5.9 G/DL
- URIC ACID (72 h, time 3 day): 1.83 mg/dL
- ABSOLUTE BASOPHIL (120 h, time 5 day): 0 CELLS/uL
- ABSOLUTE EOSINOPHIL (120 h, time 5 day): 0 CELLS/uL
- ABSOLUTE LYMPHOCYTE (120 h, time 5 day): 14176.33 CELLS/uL
- ABSOLUTE MONOCYTE (120 h, time 5 day): 62.33 CELLS/uL
- ABSOLUTE SEGMENTED NEUTROPHIL (120 h, time 5 day): 1228 CELLS/uL
- BASOPHIL (120 h, time 5 day): 0%
- EOSINOPHIL (120 h, time 5 day): 0%
- ERYTHROCYTE COUNT (120 h, time 5 day): 5.56 x10E6/uL
- HEMATOCRIT (120 h, time 5 day): 36.17%
- HEMOGLOBIN (120 h, time 5 day): 14.13 G/DL
- LEUKOCYTE COUNT (120 h, time 5 day): 15.47 x10E3/uL
- LYMPHOCYTE (120 h, time 5 day): 92.33%
- MEAN CORPUSCULAR HEMOGLOBIN (120 h, time 5 day): 25.5 pg
- MEAN CORPUSCULAR HEMOGLOBIN CONCENTRATION (120 h, time 5 day): 39.1 G/DL
- MEAN CORPUSCULAR VOLUME (120 h, time 5 day): 65.23 fL
- MONOCYTE (120 h, time 5 day): 0.33%
- NEUTROPHIL (120 h, time 5 day): 7.33%
- NUCLEATED RED BLOOD CELLS (120 h, time 5 day): 0 /100WBC
- PLATELET COUNT (120 h, time 5 day): 1347.67 x10E3/uL
- ALANINE AMINOTRANSFERASE (120 h, time 5 day): 51 u/L
- ALBUMIN (120 h, time 5 day): 4.17 G/DL
- ALKALINE PHOSPHATASE (120 h, time 5 day): 318.33 u/L
- ASPARTATE AMINOTRANSFERASE (120 h, time 5 day): 80 u/L
- BLOOD UREA NITROGEN (120 h, time 5 day): 17.33 mg/dL
- CARBON DIOXIDE (120 h, time 5 day): 29 mmol/L
- CHLORIDE (120 h, time 5 day): 100 MEQ/L
- CHOLESTEROL (120 h, time 5 day): 75.33 mg/dL
- CREATINE PHOSPHOKINASE (120 h, time 5 day): 240 u/L
- CREATININE (120 h, time 5 day): 0.17 mg/dL
- GLUCOSE (120 h, time 5 day): 165.33 mg/dL
- LACTATE DEHYDROGENASE (120 h, time 5 day): 290 u/L
- LIPASE (120 h, time 5 day): 9.67 u/L
- PHOSPHORUS (120 h, time 5 day): 12.97 mg/dL
- POTASSIUM (120 h, time 5 day): 6.07 MEQ/L
- SODIUM (120 h, time 5 day): 146.03 MEQ/L
- TOTAL BILIRUBIN (120 h, time 5 day): 0.17 mg/dL
- TOTAL PROTEIN (120 h, time 5 day): 6.07 G/DL
- URIC ACID (120 h, time 5 day): 1.5 mg/dL
